One data set has as its target T1, CYP3A4 (Homo sapiens, UniProt P08684).
T1 construct: purchased Thermo Fisher Scientific
Description: Vivid CYP450 screening kit, CYP3A4. As to conditions: 0.015 μg/mL, 20 min incubation, p > 0.05. It is filed as biochemical. How it is done:
(§1) Possible inhibitory effect of TP-315 on the catalytic activity of human cytochrome CYP450 enzymes was tested using Vivid CYP450 screening kits (Thermo Fisher Scientific, Waltham, MA, USA) according to the manufacturer’s standard procedure (Vivid BOMCC substrate CYP2B6 blue, Vivid DBOMF substrate CYP3A4 green, Vivid DBOMF substrate CYP3A5 green, Vivid EOMCC substrate CYP2C19 blue, Vivid MOBFC substrate CYP2D6 cyan). The experiment was carried out in the endpoint test mode (reading after 20 min of incubation). The test compound was dissolved in DMSO (starting concentrations, 2.5× concentrated); to avoid the influence of the solvent on the enzyme activity, the results were compared with the solvent control. The influence of TP-315 on the activity of selected enzymes was tested at concentrations of 0.015, 0.1, 0.5, 1, 2.5, 5, and 10 μg/mL. The positive control compounds (inhibitors) were miconazole (for CYP2C19 and CYP2B6), quinidine (for CYP2D6), and ketoconazole (for CYP3A4 and CYP3A5). Inhibitor concentrations were selected according to the manufacturer’s recommendations to achieve ≥90% inhibition. All inhibitors were obtained from Sigma-Aldrich (St. Louis, MO, USA). The BioTek Synergy H1 reader (BioTek Instruments, Inc., USA) was used to read the fluorescence according to the manufacturer’s guidelines. The tests were performed in duplicate.

In the next data set the target is T2, CYP2C19 (Homo sapiens, UniProt P33261).
T2 construct: purchased Thermo Fisher Scientific
T2 sequence (P33261 whole entry): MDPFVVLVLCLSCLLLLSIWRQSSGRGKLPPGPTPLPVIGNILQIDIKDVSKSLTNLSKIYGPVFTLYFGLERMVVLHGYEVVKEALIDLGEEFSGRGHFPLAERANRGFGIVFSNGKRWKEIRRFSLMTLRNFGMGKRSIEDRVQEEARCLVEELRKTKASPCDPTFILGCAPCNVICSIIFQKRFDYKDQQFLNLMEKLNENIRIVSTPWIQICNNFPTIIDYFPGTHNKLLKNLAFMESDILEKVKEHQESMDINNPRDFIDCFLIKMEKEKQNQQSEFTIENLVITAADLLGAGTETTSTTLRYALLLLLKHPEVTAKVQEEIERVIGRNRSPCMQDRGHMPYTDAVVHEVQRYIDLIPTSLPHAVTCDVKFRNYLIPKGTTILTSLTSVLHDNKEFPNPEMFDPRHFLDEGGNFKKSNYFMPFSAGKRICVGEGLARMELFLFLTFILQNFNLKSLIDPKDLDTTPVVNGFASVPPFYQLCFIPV
In words: Vivid CYP450 screening kit, CYP2C19. It is filed as biochemical. As to conditions: 0.015 µg/mL, 20 min incubation, p < 0.05. How it is done:
as §1

For data set [1], the system named is Albino Swiss mice. Description: Biochemical parameters of liver and renal function in serum after chronic administration. It is filed as in vivo. The note with it: 47.6 mg/kg i.p. for 14 days, unpaired t-test p > 0.05. As for the experimental part: (§2) The experiments were carried out on adult male Albino Swiss mice weighing 20 ± 5 g. […] The mice from the control group (8 mice) received 0.9% NaCl solution i.p. once daily for 14 days.
(§3) After completion of the experimental procedure (on the 15th day—24h after the last injection), the animals were decapitated. Their livers and kidneys were collected for histopathological examination, while blood was drawn for biochemical and morphological tests and for HPLC-FL determination of TP-315 in serum.
For the determination of biochemical parameters (ALT, AST, GGT, creatinine, urea), whole blood was collected in clotting activator tubes (Sarstadt, Nümbrecht, Germany). To obtain serum, blood tubes were centrifuged at 4200 RPM for 10 min. Biochemical determinations were performed on an ERBA XL 640 analyzer (ERBA Mannheim, Germany) according to the manufacturer’s standard procedure. Whole blood for the determination of morphological parameters was collected in ethylenediaminetetraacetic acid (EDTA) tubes (Sarstadt, Nümbrecht, Germany). Morphological parameters were determined on the MYTHIC 18 Cormay analyzer (Cormay, Lublin, Poland) according to the manufacturer’s standard procedure.

Another data set relates to mice. More on the design: method as in PMID 23291122, PMID 25226229, PMID 25090118; unit not given here. The note with it: chimney test, cited from earlier work.
A further data set concerns the target T3, CYP2B6 (Homo sapiens, UniProt P20813).
T3 construct: purchased Thermo Fisher Scientific
T3 sequence (P20813 1-491): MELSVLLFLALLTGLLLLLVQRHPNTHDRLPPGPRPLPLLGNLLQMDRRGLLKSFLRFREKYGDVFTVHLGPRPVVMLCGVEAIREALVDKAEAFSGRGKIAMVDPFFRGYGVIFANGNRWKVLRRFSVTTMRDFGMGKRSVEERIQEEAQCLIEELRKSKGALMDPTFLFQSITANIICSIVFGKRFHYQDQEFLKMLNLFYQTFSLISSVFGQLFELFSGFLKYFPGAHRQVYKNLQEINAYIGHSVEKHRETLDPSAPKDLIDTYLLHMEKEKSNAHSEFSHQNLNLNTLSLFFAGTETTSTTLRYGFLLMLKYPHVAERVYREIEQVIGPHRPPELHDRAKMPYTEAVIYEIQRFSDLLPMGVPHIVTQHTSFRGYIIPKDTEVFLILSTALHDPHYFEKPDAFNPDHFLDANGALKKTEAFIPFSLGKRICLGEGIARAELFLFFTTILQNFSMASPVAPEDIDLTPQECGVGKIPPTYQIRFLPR
Description: Vivid CYP450 screening kit, CYP2B6. It counts as biochemical. As to conditions: 0.015 μg/mL, 20 min incubation, p > 0.05. How it is done: as §1

A further data set addresses T4, CYP2D6 (Homo sapiens, UniProt P10635).
T4 construct: purchased Thermo Fisher Scientific
Description: Vivid CYP450 screening kit, CYP2D6. It is filed as biochemical. The note with it: 0.015 μg/mL, 20 min incubation, p > 0.05. As for the experimental part:
as §1

The subject of data set [2] is Albino Swiss mice. Description: Histopathological examination of kidneys and liver after chronic administration. It counts as in vivo. The note with it: 47.6 mg/kg i.p. for 14 days, H&E staining, vs control group. As for the experimental part: as §2, §3
The kidneys and livers of mice from the control and experimental groups were subjected to histopathological evaluation. The organs were fixed in 10% buffered formalin at pH 7.2 and then fixed with increasing concentrations of alcohol solutions, acetone, and xylene in paraffin blocks using a tissue processor (Leica TP-20, Leica Biosystems, Wetzlar, Germany). 4 μm thick tissue sections cut with a sledge microtome (Leica SR-200, Leica Biosystems, Wetzlar, Germany) were transferred onto slides. The preparations for the histopathological samples were stained with hematoxylin and eosin and evaluated under a light microscope (Nikon Eclipse E-600, […]). Reagents were purchased from Sigma-Aldrich (St. Louis, MO, USA).

In data set [3] the test system is 6 Hz psychomotor seizure model. More on the design: method as in PMID 32253957. The note with it: mice, cited from earlier work.
Data set [4] concerns the target batrachotoxin-binding site on voltage-gated sodium channels. Further details: method as in PMID 25226229, PMID 30594731, PMID 28824309. The note with it: read-out: Affinity towards Batrachotoxin-Binding Site on Sodium Channels IC50 ± SEM; cited from earlier work.

Read-outs that look alike come from different tables or passages of the source.

T1 sequence (P08684 whole entry): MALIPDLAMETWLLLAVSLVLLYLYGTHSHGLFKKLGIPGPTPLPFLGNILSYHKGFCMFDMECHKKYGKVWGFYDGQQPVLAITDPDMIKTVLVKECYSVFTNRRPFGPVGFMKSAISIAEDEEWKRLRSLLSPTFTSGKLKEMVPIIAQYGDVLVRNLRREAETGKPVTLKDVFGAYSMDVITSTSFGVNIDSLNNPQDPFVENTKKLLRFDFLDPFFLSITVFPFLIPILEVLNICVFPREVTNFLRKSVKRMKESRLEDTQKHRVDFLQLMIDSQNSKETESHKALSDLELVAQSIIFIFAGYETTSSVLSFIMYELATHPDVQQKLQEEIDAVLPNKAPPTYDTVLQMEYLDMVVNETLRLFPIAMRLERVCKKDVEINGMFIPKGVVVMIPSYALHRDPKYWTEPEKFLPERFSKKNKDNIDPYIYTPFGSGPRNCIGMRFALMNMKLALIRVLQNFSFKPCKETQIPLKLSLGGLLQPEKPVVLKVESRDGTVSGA
T4 sequence (P10635 whole entry): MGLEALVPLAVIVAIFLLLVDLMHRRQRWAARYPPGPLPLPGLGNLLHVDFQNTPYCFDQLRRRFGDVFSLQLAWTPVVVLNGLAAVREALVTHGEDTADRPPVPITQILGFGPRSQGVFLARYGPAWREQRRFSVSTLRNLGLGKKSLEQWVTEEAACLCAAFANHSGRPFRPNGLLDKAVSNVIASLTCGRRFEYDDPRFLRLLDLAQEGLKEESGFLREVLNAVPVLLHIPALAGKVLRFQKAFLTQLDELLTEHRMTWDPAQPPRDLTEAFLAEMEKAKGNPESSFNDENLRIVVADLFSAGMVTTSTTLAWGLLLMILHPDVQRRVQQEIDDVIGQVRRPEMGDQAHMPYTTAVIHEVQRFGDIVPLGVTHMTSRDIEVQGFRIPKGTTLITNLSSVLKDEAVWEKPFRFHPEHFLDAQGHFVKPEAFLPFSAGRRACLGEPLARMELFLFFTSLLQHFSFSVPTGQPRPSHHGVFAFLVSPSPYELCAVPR

For orientation: IC50 means the concentration needed to halve the response being measured. Take `CCCCCCn1c(-c2cccc(Cl)c2)n[nH]c1=S` [TP-315, 5-(3-Chlorophenyl)-4-hexyl-2,4-dihydro-3H-1,2,4-triazole-3-thione]: the “Inhibition of CYP3A4 activity compared to the control” value on CYP3A4 is recorded as “did not statistically significantly inhibit”. The “Inhibition of CYP2C19 activity compared to the control” value at CYP2C19 is “statistically significantly inhibited”. The “ALT in serum vs control group” value with Albino Swiss mice [1] was “did not differ statistically significant”. The “AST in serum vs control group” value in the data set with Albino Swiss mice [1] is reported as “did not differ statistically significant”. Moreover, the “Creatinine concentration in serum vs control group” value in the data set with Albino Swiss mice [1] is “not statistically significant”. Besides, the “GGT in serum vs control group” value in the data set on Albino Swiss mice [1] is given as “did not differ statistically significant”. Moreover, the “Urea concentration in serum vs control group” value in the data set with Albino Swiss mice [1] was “not statistically significant”. The “Neurotoxicity in Chimney or Rotarod (†) Tests in Mice” value is 462.9 ± 20.0 with mice (pretreatment time 15 min), 462.9 ± 20.0 in the data set on mice (pretreatment time 30 min), 456.9 ± 19.7 in the data set with mice (pretreatment time 60 min) and 448.1 ± 21.7 in the data set on mice (pretreatment time 120 min). Moreover, the “Inhibition of CYP2B6 activity compared to the control” value at CYP2B6 is reported as “did not statistically significantly inhibit”. Besides, the “Inhibition of CYP2D6 activity compared to the control” value at CYP2D6 is “did not statistically significantly inhibit”. The “Histopathological examination of kidneys” value in the data set with Albino Swiss mice [2] is “no differences in the microscopic structure of kidneys”. The “Histopathological examination of liver” value with Albino Swiss mice [2] was “normal organ without pathological changes”. Also, the “Anticonvulsant Activity in 6 Hz Test ED50 ± SEM” value is on record as 61.3 ± 10.1 mg/kg in [3] (pretreatment time 15 min), 59.7 ± 6.8 mg/kg in data set [3] (pretreatment time 30 min), 68.1 ± 11.0 mg/kg in data set [3] (pretreatment time 60 min) and 136.2 ± 18.3 mg/kg in [3] (pretreatment time 120 min). The 50% inhibitory concentration (IC50) in data set [4] is 6.21 ± 0.8 µM.

Source of the values: PMC8037910, “Effect of Chronic Administration of 5-(3-chlorophenyl)-4-Hexyl-2,4 -Dihydro-3H-1,2,4-Triazole-3-Thione (TP-315)—A New Anticonvulsant Drug Candidate—On Living Organisms” (International Journal of Molecular Sciences, 2021).
